Experimental data reported in patent US7977369B2, “Medical compositions for intravesical treatment of bladder cancer” (Spectrum Pharmaceuticals, Inc., priority 2001, dated 2011).
Converted amounts (≈) assume the structure as drawn. Like-named read-outs stand apart in the source and are kept apart here.

Assays:
[1] = Solubility of EO9 in formulation vehicle and water
H460 cells = assay: Response of H460 cells to EO9 in the presence or absence of FAA (2 mM); format: cell-based, human; settings: for IC50: Homo sapiens, NCI-H460, H460 cells
Description: Briefly, H460 cells (NQO1 rich) were plated into 96 well plates at a density of 2×10^3 cells per well. Following an overnight incubation at 37° C., medium was replaced with fresh medium (pH 7.4) containing a non-toxic concentration of FAA (2 mM) and incubated for one hour at 37° C. Medium was then replaced with fresh medium containing EO9 (range of drug concentrations) and FAA (2 mM) at either pHe 7.4 or 6.0. Following a further one hour incubation at 37° C., cells were washed twice with HBSS and incubated at 37° C. in growth medium for five days. Chemosensitivity was determined by the NM assay as described above and results were expressed in terms of IC50 values, selectivity ratios (IC50 at pHe 7.4/IC50 at pHe 6.0) and protection ratios (ICSO FAA/EO9 combinations/IC50 for EO9 alone).

H460 = assay: Chemosensitivity, one hour drug exposure, MTT assay, monolayer; format: cell-based, human
Source text: (§1) Cell culture and chemosensitivity studies. […] H460 (human NSCLC) cell line was obtained from the American Type Culture Collection (ATCC). HT-29 (human colon carcinoma), RT112/83 (human bladder carcinoma epithelial), EJ138 (human bladder carcinoma) and T24/83 (human bladder transitional cell carcinoma) cell lines were obtained from the European Collection of Animal Cell Cultures (ECACC). A2780 (human ovarian carcinoma) and BE (human colon carcinoma) cells were gifts from Dr T Ward (Paterson Institute, Manchester, UK). All cell lines were maintained as monolayer cultures in RPNII 1640 culture medium supplemented with fetal calf serum (10%), sodium pyruvate (2 mM), L-glutamine (2 mM), penicillin/streptomycin (50 IU/ml/50 jug/ml) and buffered with HEPES (25 mK). All cell culture materials were purchased from Gibco BRL (Paisley, UK). […] Calibration curves were conducted over a broad range of pH values in culture medium (pH 3.5 to 11) and the stability of the pH conditions monitored over a one hour incubation period at 37° C.

HT-29 = assay: as above; format: cell-based, human
Source text: as §1

EJ138 = assay: as above; format: cell-based, human
Source text: as §1

BE = assay: as above; format: cell-based, human
Source text: as §1

RT112 = assay: as above; format: cell-based, human
Source text: as §1

T24/83 = assay: as above; format: cell-based, human
Source text: as §1

A2780 = assay: as above; format: cell-based, human
Source text: as §1

recombinant human NQO1 = molecular target: T1, recombinant human NQO1 (Homo sapiens, UniProt P15559); assay: Substrate specificity: reduction of EO9 by NQO1, cytochrome c reporter; format: biochemical
T1 construct: made in house; host or cells: E. coli (pKK233-2 plasmid, IPTG induction)
T1 sequence (P15559 whole entry): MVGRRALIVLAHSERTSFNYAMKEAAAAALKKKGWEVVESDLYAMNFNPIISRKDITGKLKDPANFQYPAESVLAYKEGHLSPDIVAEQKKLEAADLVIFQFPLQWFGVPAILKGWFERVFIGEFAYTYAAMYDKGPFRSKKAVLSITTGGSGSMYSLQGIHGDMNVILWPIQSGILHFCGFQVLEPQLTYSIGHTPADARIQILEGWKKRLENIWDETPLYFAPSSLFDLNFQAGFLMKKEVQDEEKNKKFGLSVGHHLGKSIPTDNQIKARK
Description: Substrate specificity. The influence of acidic pHe on substrate specificity for purified human NQ01 was determined as described previously (Phillips 1996, Walton et al, 1991). NQ01 mediated reduction of the quinone to the hydroquinone species is difficult to detect by conventional assays thereby necessitating the use of a reporter signal generating step. In this assay, the hydroquinone acts as an intermediate electron acceptor which subsequently reduces cytochrome c which can readily be detected spectrophotometrically. Recombinant human NQ01 was derived from E. coli transformed with the pKK233-2 expression plasmid containing the full length cDNA sequence for human NQ01 isolated from the (Beall et al, 1994). Following IPTG induction, NQO1 was purified by cybacron blue affinity chromatography, details of which are described elsewhere (Phillips, 1996). […] Reduction of EO9 by recombinant human NQO1 was determined at pH 6.0 and 7.4 by measuring the rate of reduction of cytochrome c was measured at 550 nm on a Beckman DU 650 spectrophotometer according to previously published methods (Phillips, 1996).

[2] = in humans; cited from earlier work
[3] = tested on: HT-29 multicell spheroids; assay: Chemosensitivity of HT-29 multicell spheroids; format: cell-based, human; settings: for IC50: Homo sapiens, HT-29, 1 h, spheroids
Description: HT-29 multicell spheroids were prepared by seeding 5×10^5 cells into T25 flasks which had been based coated with agar (1% w/v) and incubated for 24 h at 37° C. Immature spheroids were then transferred to a spinner flask (Techne) containing 250 ml of RPMI 1640 growth medium and spheroids were kept in suspension by stirring at 50 rpm. When spheroids reached a diameter of approximately 500 Am, they were harvested for chemosensitivity studies. Multicell spheroids were exposed to a range of EO9 concentrations at pHe 6.0 and 7.4 for one hour at 37° C. Following drug incubation, spheroids were washed twice in HBSS prior to dissagregation into single cells using trypsin EDTA. Disaggregated spheroids were then washed in HBSS and then plated into 96 well plates (1×10^3 cells per well) and incubated at 37° C. for four days. Chemosensitivity was assessed using the NM assay as described elsewhere (Phillips et al, 1992).

[4] = Stability of EO9 at acidic pH; settings: buffer
[5] = phase I clinical trials; cited from earlier work
[6] = tested on: NSCLC, gastric, breast, pancreatic and colon cancers; settings: phase II trials; cited from earlier work
[7] = tested on: NQ01 rich and deficient tumors; settings: intratumoural administration; cited from earlier work
histocultures = settings: cited from earlier work

Cn1c(/C=C/CO)c(CO)c2c1C(=O)C=C(N1CC1)C2=O [EO9, 5-(1-aziridinyl)-3-(hydroxymethyl)-2-[(E)-3-hydroxyprop-1-enyl]-1-methyl-1H-indole-4,7-dione]
solubility ([1]; tert-butanol formulation vehicle, aqueous with cosolvent or surfactant or cyclodextrin): ≥ 9500 µg/mL | solubility ([1]; water): ~200 µg/mL (≈ 694 µM) | SR = Selectivity Ratio, IC50 at pHe 7.4 divided by IC50 at pHe 6.0 (H460 cells; H460 cells, with or without FAA 2 mM): 6.31 | IC50 (H460 cells; pHe 6.0, with or without FAA 2 mM): 9.5 ± 2.6 nM | IC50 (H460 cells; pHe 7.4, with or without FAA 2 mM): 60 ± 8.1 nM | SR (selectivity ratio) = IC50 at pH 7.4/IC50 at pH 6.0 (H460; H460): 6.31 | IC50 (H460; Homo sapiens, NCI-H460, 1 h, read-out: IC50 pHe 6.0): 9.5 ± 2 nM | IC50 (H460; Homo sapiens, NCI-H460, 1 h, read-out: IC50 pHe 7.4): 60 ± 10 nM | SR (selectivity ratio) = IC50 at pH 7.4/IC50 at pH 6.0 (HT-29; HT-29): 4.13 | IC50 (HT-29; Homo sapiens, HT-29, 1 h, read-out: IC50 pHe 6.0): 29 ± 10 nM | IC50 (HT-29; Homo sapiens, HT-29, 1 h, read-out: IC50 pHe 7.4): 120 ± 53 nM | SR (selectivity ratio) = IC50 at pH 7.4/IC50 at pH 6.0 (EJ138; EJ138): 7.94 | IC50 (EJ138; Homo sapiens, EJ138, 1 h, read-out: IC50 pHe 6.0): 39 ± 7 nM | IC50 (EJ138; Homo sapiens, EJ138, 1 h, read-out: IC50 pHe 7.4): 310 ± 95 nM | SR (selectivity ratio) = IC50 at pH 7.4/IC50 at pH 6.0 (BE; BE): 4.07 | IC50 (BE; Homo sapiens, 1 h, read-out: IC50 pHe 6.0): 1300 ± 75 nM | IC50 (BE; Homo sapiens, 1 h, read-out: IC50 pHe 7.4): 5300 ± 169 nM | IC50 (RT112; Homo sapiens, RT-112, 1 h, read-out: IC50 pHe 6.0): 61 ± 13 nM | IC50 (RT112; Homo sapiens, RT-112, 1 h, read-out: IC50 pHe 7.4): 1050 ± 75 nM | SR (selectivity ratio) = IC50 at pH 7.4/IC50 at pH 6.0 (RT112; RT112): 17.21 | IC50 (T24/83; Homo sapiens, T24/83, 1 h, read-out: IC50 pHe 6.0): 60 ± 18 nM | IC50 (T24/83; Homo sapiens, T24/83, 1 h, read-out: IC50 pHe 7.4): 290 ± 65 nM | SR (selectivity ratio) = IC50 at pH 7.4/IC50 at pH 6.0 (T24/83; T24/83): 4.83 | SR (selectivity ratio) = IC50 at pH 7.4/IC50 at pH 6.0 (A2780; A2780): 3.92 | IC50 (A2780; Homo sapiens, A2780, 1 h, read-out: IC50 pHe 6.0): 51 ± 14 nM | IC50 (A2780; Homo sapiens, A2780, 1 h, read-out: IC50 pHe 7.4): 200 ± 50 nM | rate of reduction of EO9 by purified human NQO1 (recombinant human NQO1; pH 6.0): 21.30±1.50 nmol cytochrome c reduced/min/mg protein | specific activity, cytochrome c reduced/min/mg protein (recombinant human NQO1; pH 6.0): 21.30±1.5 pmol cytochrome c reduced/min/mg protein | rate of reduction of EO9 by purified human NQO1 (recombinant human NQO1; pH 7.4): 21.10±2.30 nmol cytochrome c reduced/min/mg protein | specific activity, cytochrome c reduced/min/mg protein (recombinant human NQO1; pH 7.4): 21.10±2.3 pmol cytochrome c reduced/min/mg protein | plasma elimination half-life [2]: 10 min | ratio of IC50 values for spheroids to monolayers ([3]; HT-29, pHe 6.0): 341 | ratio of IC50 values for spheroids to monolayers ([3]; HT-29, pHe 7.4): 202 | IC50 ([3]; pHe 6.0, one hour exposure): 9890 ± 890 nM | IC50 ([3]; pHe 7.4, one hour exposure): 24200 ± 3290 nM | cells killed in spheroids ([3]; at higher doses): > 90% | half-life ([4]; pH 5.5): 37 min | half-life ([4]; pH 6): 150 min | clinical response [5]: three partial remissions | clinical activity [6]: no activity | tumor growth delay [7]: significant growth delays

CO[C@@]12[C@H](COC(N)=O)C3=C(C(=O)C(C)=C(N)C3=O)N1C[C@@H]1N[C@@H]12 [MMC, Mitomycin C, reference compound]
IC50 (H460; H460, pHe 6.0, one hour exposure, read-out: IC50 pHe 6.0): 220 ± 130 nM | IC50 (H460; H460, pHe 7.4, one hour exposure, read-out: IC50 pHe 7.4): 900 ± 200 nM | IC50 (HT-29; HT-29, pHe 6.0, one hour exposure, read-out: IC50 pHe 6.0): 500 ± 240 nM | IC50 (HT-29; HT-29, pHe 7.4, one hour exposure, read-out: IC50 pHe 7.4): 1050 ± 210 nM | IC50 (EJ138; EJ138, pHe 6.0, one hour exposure, read-out: IC50 pHe 6.0): 1400 ± 250 nM | IC50 (EJ138; EJ138, pHe 7.4, one hour exposure, read-out: IC50 pHe 7.4): 1600 ± 200 nM | IC50 (BE; BE, pHe 6.0, one hour exposure, read-out: IC50 pHe 6.0): 4400 ± 215 nM | IC50 (BE; BE, pHe 7.4, one hour exposure, read-out: IC50 pHe 7.4): 7000 ± 192 nM | IC50 (RT112; RT112, pHe 6.0, one hour exposure, read-out: IC50 pHe 6.0): 2000 ± 500 nM | IC50 (RT112; RT112, pHe 7.4, one hour exposure, read-out: IC50 pHe 7.4): 3350 ± 250 nM | IC50 (T24/83; T24/83, pHe 6.0, one hour exposure, read-out: IC50 pHe 6.0): 2100 ± 800 nM | IC50 (T24/83; T24/83, pHe 7.4, one hour exposure, read-out: IC50 pHe 7.4): 2150 ± 93 nM | IC50 (A2780; A2780, pHe 6.0, one hour exposure, read-out: IC50 pHe 6.0): 1400 ± 130 nM | IC50 (A2780; A2780, pHe 7.4, one hour exposure, read-out: IC50 pHe 7.4): 2400 ± 340 nM | difference in toxicity between physiological and acidic pHe (histocultures): no difference in toxicity
